The assay concerns the target T1, AR (Homo sapiens, UniProt P10275).
T1 construct: endogenous in cells; host or cells: VCaP cells
T1 sequence (P10275 1-920): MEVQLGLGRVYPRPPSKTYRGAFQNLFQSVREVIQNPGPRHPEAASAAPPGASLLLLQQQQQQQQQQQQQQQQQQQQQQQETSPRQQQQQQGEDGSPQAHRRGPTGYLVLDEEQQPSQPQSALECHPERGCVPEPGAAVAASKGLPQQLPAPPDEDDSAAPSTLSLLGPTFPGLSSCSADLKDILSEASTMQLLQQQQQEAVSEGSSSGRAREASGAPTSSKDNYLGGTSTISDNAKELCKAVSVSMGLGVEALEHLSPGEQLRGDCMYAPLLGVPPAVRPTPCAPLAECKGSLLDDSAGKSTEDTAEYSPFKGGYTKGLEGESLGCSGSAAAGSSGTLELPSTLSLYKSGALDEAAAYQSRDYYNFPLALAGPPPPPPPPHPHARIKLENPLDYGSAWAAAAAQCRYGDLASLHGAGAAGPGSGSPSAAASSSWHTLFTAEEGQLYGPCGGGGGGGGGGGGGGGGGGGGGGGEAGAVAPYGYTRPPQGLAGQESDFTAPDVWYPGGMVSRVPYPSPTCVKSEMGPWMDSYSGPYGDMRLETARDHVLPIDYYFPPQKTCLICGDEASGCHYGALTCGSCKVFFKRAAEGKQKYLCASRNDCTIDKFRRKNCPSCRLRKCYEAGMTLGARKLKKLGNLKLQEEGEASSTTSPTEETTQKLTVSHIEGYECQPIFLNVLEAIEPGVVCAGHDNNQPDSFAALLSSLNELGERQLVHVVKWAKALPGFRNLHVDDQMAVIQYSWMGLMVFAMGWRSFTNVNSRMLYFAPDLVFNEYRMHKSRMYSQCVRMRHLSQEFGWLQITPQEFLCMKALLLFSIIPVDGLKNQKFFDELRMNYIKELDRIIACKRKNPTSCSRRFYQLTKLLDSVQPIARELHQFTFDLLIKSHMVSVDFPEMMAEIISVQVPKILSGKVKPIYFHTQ
Briefly: VCAP AR Degradation Assay. It counts as cell-based. The settings on record: VCaP cells, 24 h, AR ELISA; for DC50: concentration of compound when AR level = 50% of DMSO control (50% AR degradation); for Y: lowest measured AR level normalized to DMSO control (AR degradation efficiency). Summed up:
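VCaP cells (DMEM, 8% FBS) were treated 24 h at 37 °C with a 10-point 1:3 series from 5 µM final, with 0.1% DMSO control. Total AR in lysates was measured by sandwich ELISA as percent of DMSO. A 4-parameter fit gave DC50 (50% of control) and EC50; fitted Ymin marks degradation efficiency.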

Where a name gives a salt, the structure may show the parent alone.

Take `C[C@@H]1CN(CCCO[C@H]2CC[C@H](N3C(=S)N(c4ccc(C#N)c(Cl)c4)C(=O)C3(C)C)CC2)C[C@H](C)N1CC(=O)Nc1cccc2c(N3CCC(=O)NC3=O)nn(C)c12` [Cmpd 9, 2-((2R,6S)-4-(3-((trans-4-(3-(3-Chloro-4-cyanophenyl)-5,5-dimethyl-4-oxo-2-thioxoimidazolidin-1-yl)cyclohexyl)oxy)propyl)-2,6-dimethylpiperazin-1-yl)-N-(3-(2,4-dioxotetrahydropyrimidin-1(2H)-yl)-1-methyl-1H-indazol-7-yl)acetamide hydrochloride]: the half-maximal degradation concentration (DC50) is no more than 2 nM and the Y entry is “* (0<Y≤20%)”.

`C[C@@H]1CN(CCO[C@H]2CC[C@H](N3C(=S)N(c4cnc(C#N)c(C(F)(F)F)c4)C(=O)C3(C)C)CC2)C[C@H](C)N1CC(=O)Nc1cccc2c(N3CCC(=O)NC3=O)nn(C)c12` [Cmpd 4, 2-((2R,6S)-4-(2-((trans-4-(3-(6-Cyano-5-(trifluoromethyl)pyridin-3-yl)-5,5-dimethyl-4-oxo-2-thioxoimidazolidin-1-yl)cyclohexyl)oxy)ethyl)-2,6-dimethylpiperazin-1-yl)-N-(3-(2,4-dioxotetrahydropyrimidin-1(2H)-yl)-1-methyl-1H-indazol-7-yl)acetamide hydrochloride]: the DC50 was in the range of 2 to 10 nM and the Y entry is “** (20%<Y≤%)”.

On to `C[C@@H]1C[C@H](OCCC[C@H]2CC[C@H](N3C(=S)N(c4ccc(C#N)c(C(F)(F)F)c4)C(=O)C3(C)C)CC2)C[C@H](C)N1CC(=O)Nc1cccc2c(N3CCC(=O)NC3=O)nn(C)c12` [Cmpd 29, 2-((2R,4r,6S)-4-(3-((trans)-4-(3-(4-Cyano-3-(trifluoromethyl)phenyl)-5,5-dimethyl-4-oxo-2-thioxoimidazolidin-1-yl)cyclohexyl)propoxy)-2,6-dimethylpiperidin-1-yl)-N-(3-(2,4-dioxotetrahydropyrimidin-1(2H)-yl)-1-methyl-1H-indazol-7-yl)acetamide], for which the DC50 was 10 to 100 nM and the Y result is on record as “* (0<Y≤20%)”.

These data come from patent US11560371B2, “Cereblon binding compounds, compositions thereof, and methods of treatment therewith” (Celgene Corporation, priority 2020, dated 2023).
